This is an account of results in patent publication US9598441B2, “Therapeutic compounds and methods” (Wayne State University, priority 2011, dated 2017).

Test [1] has as its system immortalized, non-tumorigenic mammary epithelial MCF-10A cells. Kind of test: MTT cell viability assay, non-tumorigenic cells. It is filed as cell-based, human. The method, then:
Logarithmically growing cells were either untreated or treated with different agents for various time periods. The cells were lysed to prepare protein extracts. IP was carried out by incubating approximately 1 mg of the protein lysate with appropriate antibodies, and the immunoprecipitates or cell lysates were then electrophoresed on 9-12% SDS-polyacrylamide gels, and transferred to nitrocellulose membranes. The membranes were subsequently probed with various antibodies to determine expression/presence of the corresponding proteins. The cell growth inhibition was assessed by using MTT assay. Briefly, MTT (3-[4,5-Dimethylthiazol-2-yl]-2,5diphenyltetrazolium bromide) was dissolved in sterile 1×PBS to prepare a stock solution of 5 mg/ml. […] The assessment of the live cells was derived by measuring the absorbance of the converted dye at wavelength of 570 nm.
To test whether CFMs that interfere with CARP-1 binding with APC-2 modulate cell growth, HBC, colon, prostate, pancreatic cancer, MPM and lymphoma cells, as well as the immortalized, mammary epithelial MCF-10A cells were utilized. The cells were either treated with vehicle (DMSO) or various doses of the respective compound for a period of 72 h, and percent of live/viable cells for each compound was determined relative to the untreated controls as described in Methods.
A general note: Tetrazolium assays rely on reduction of a dye to a coloured formazan, in cell work by metabolically active cells.

Test [2] addresses T1, endogenous interaction between CARP-1 and APC-2 in MDA-MB-468 HBC cells (Homo sapiens, UniProt Q8IX12).
T1 construct: endogenous in cells; host or cells: MDA-MB-468 human breast cancer cells
T1 sequence (Q8IX12 1-1150): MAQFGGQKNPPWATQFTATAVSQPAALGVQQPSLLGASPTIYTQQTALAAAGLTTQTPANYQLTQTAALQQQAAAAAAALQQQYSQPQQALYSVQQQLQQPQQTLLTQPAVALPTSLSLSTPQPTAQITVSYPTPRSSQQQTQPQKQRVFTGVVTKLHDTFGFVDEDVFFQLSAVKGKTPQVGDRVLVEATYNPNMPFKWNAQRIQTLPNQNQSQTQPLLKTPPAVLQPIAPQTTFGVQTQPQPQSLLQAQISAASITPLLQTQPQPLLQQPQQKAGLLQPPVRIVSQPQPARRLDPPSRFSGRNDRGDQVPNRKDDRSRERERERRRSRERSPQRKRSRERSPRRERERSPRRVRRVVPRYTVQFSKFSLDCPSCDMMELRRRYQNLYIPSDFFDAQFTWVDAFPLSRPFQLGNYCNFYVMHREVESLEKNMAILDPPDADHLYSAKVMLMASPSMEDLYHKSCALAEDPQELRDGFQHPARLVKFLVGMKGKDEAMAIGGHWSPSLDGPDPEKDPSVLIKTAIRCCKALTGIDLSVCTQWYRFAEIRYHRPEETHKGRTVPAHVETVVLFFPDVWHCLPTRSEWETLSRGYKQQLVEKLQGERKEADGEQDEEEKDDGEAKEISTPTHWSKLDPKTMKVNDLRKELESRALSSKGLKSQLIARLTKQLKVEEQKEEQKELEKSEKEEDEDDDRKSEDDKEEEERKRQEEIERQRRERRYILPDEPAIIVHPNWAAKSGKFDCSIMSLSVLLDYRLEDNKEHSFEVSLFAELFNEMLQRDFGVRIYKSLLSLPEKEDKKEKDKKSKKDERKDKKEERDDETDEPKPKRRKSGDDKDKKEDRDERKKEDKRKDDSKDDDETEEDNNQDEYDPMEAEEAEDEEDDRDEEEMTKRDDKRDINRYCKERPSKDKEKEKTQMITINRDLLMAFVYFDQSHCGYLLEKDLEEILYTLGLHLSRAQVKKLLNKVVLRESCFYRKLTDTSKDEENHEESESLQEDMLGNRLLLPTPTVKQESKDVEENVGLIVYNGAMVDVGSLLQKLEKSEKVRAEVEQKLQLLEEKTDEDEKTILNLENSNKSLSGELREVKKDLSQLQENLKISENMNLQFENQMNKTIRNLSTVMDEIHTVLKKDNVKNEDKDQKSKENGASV
Kind of test: IP-WB of endogenous CARP-1/APC-2 interaction in treated cells. It is filed as cell-based. The note with it: escalating doses, 12 h. The method, then:
FIGS. 2A-2D: Identification of small molecular antagonists of CARP-1 binding with APC-2. 2A, FP assay for CARP-1-APC-2 binding. Increasing concentrations of fluorescein-tagged A-epitope peptide [CARP-1 (951-980)] were incubated with the indicated quantities of the Gst-APC-2(685-754) proteins in assay buffer containing 0.01% triton-X100. Gst-NEMO (221-317) was included as a negative control. mP, millipolarization units. 2B, chemical structures of inhibitors of CARP-1 binding with APC-2 identified from HTS. CFM, CARP-1 Functional Mimetic; CFM-1, (Z)-5-(5-bromo-7-methyl-2-oxoindolin-3-ylidene)-2-thioxothiazolidin-4-one; CFM-4,1-(2-chlorobenzyl)-5′-phenyl-3′H-spiro[indoline-3,2′-[1,3,4]thiadiazol]-2-one; CFM-5,5-bromo-1-phenethyl-5′-phenyl-3′H-spiro[indoline-3,2′-[1,3,4]thiadiazol]-2-one. 2C, CFM-4 and CFM-5 bind CARP-1. […] The complexes were analyzed by SDS-PAGE followed by WB with the noted antibodies. […] Immunoprecipitates or the respective cell lysates were analyzed by WB with noted antibodies as in FIG. 1A. […]
Logarithmically growing cells were either untreated or treated with different agents for various time periods. […] The cell growth inhibition was assessed by using MTT assay. […] The assessment of the live cells was derived by measuring the absorbance of the converted dye at wavelength of 570 nm. […]

Regarding `O=C1N(Cc2ccccc2Cl)c2ccccc2C12NN=C(c1ccccc1)S2` (centres unmarked) [CFM-4, 1-(2-chlorobenzyl)-5′-phenyl-3′H-spiro[indoline-3,2′-[1,3,4]thiadiazol]-2-one], the “growth of MCF-10A cells (MTT)” value in test [1] was “failed to attenuate growth”. Moreover, the “Binding of CARP-1 with APC-2 in cells (IP-WB)” value in test [2] was “declined in the presence of CFM-4 in a dose-dependent manner”.
